Data from patent publication US12274732B2, “Anti-pathogen composition and methods of use thereof” (Tenfold Technologies, LLC, priority 2017, dated 2025).
Values after ≈ are worked out from the molar mass of the structure shown. Where two headings read alike, the source gives them in different places. Positions of bridges follow the written chain, without caps; N, C: chain ends. Non-standard residues stand in square brackets, D forms with d. Residues, ends and D or L forms follow the SMILES beside them. ξ: configuration not given here. *: point of attachment. Pentadecanoyl(3ξ-OH,15-Gua) = N=C(N)NCCCCCCCCCCCCC(O)CC(=O)*; d(aThr) = C[C@@H](O)[C@@H](N)C(=O)O

Experiments:
Assay type in all cases: cell-based
Cryptococcus neoformans = experiment: In vitro antimicrobial activity against Cryptococcus neoformans; conditions: for C. neoformans IC50: Table 5, extracts tested at 8-200 μg/mL
Description: (§1) Fifty organic extracts were prepared from 25 whole broth of four microbial strains (MS1479, MS2379, MS2820, and MS2414), which were fermented in different media for the antimicrobial testing. Note each whole broth culture generated one n-butanol extract from cultural supernatant and one methanol extract from cell pellets.
(§2) The antimicrobial activities of the 50 organic extracts were studied against three fungal pathogens—Candida albicans, Aspergillus fumigatus, and Cryptococcus neoformans—and five bacterial strains-Methicillin-resistant Staphylococcus aureus (MIRSA), Escherichia coli, Pseudomonas aeruginosa, Klebsiella pneumoniae, and Vancomycin-resistant Enterococcus faecium (VRE) (FIG. 2). The test concentrations for all extracts were in the range of 8-200 μg/mL (Table 3).
The potent activities against the fungal pathogen C. neoformans and the gram-positive bacteria S. aureus, MRSA, and M. intracellulare were also shown in the crude extracts (FIG. 7).
(§3) The antimicrobial activities of identified fusaricidins were in an in vitro study against several clinically relevant microbes. […] For the in-vitro assays against bacteria, fusaricidins were tested against methicillin-resistant Staphylococcus aureus, vancomycin-resistant Enterococcus faecium, Escherichia coli, and Pseudomonas aeruginosa using four antibacterial drugs methicillin, vancomycin, cefotaxime, and meropenem as controls. […] Fusaricidins were also tested against fungal pathogens Cryptococcus neoformans, Candida albicans, and Aspergillus fumigatus and compared with two antifungal drugs, fluconazole and amphotericin B (Table 13). Moreover, the anti-parasitic activity was also tested against L. donovani and T. brucei (Table 14).

[1] = system: Methicillin-resistant Staphylococcus aureus (MRSA); experiment: In vitro antimicrobial activity against MRSA; conditions: for MRS IC50: Table 5, extracts tested at 8-200 μg/mL
Description: as §1, §2, §3

Candida albicans = experiment: In vitro antimicrobial activity against Candida albicans; conditions: for IC50: Candida albicans; for C. albicans IC50: Table 5, extracts tested at 8-200 μg/mL
Description: as §1, §2, §3

Klebsiella pneumoniae = experiment: In vitro antimicrobial activity against Klebsiella pneumoniae; conditions: Klebsiella pneumoniae; test conc. 200-8 μg/mL (extracts), 100-4 or 10-0.4 μg/mL (drugs); read-out: K pneumoniae IC50
Description: as §1, §2

Aspergillus fumigatus = experiment: In vitro antimicrobial activity against Aspergillus fumigatus; conditions: for A. fumigatus IC50: Table 5, extracts tested at 8-200 μg/mL
Description: as §1, §2, §3

Pseudomonas aeruginosa = experiment: In vitro antimicrobial activity against Pseudomonas aeruginosa
Description: as §1, §2, §3

[2] = system: Vancomycin-resistant Enterococcus faecium (VRE); experiment: In vitro antimicrobial activity against VRE; conditions: for VRE IC50: Table 5, extracts tested at 8-200 μg/mL
Description: as §1, §2, §3

Escherichia coli = experiment: In vitro antimicrobial activity against Escherichia coli
Description: as §1, §2, §3

[3] = Cryptococcus neoformans, test conc. 200-8 μg/mL (extracts), 100-4 or 10-0.4 μg/mL (drugs), read-out: C. neoformans IC50
[4] = Staphylococcus aureus, MRSA, test conc. 200-8 μg/mL (extracts), 100-4 or 10-0.4 μg/mL (drugs), read-out: MRS IC50
[5] = test conc. 200-8 μg/mL (extracts), 100-4 or 10-0.4 μg/mL (drugs), read-out: C. albicans IC50
[6] = Aspergillus fumigatus, test conc. 200-8 μg/mL (extracts), 100-4 or 10-0.4 μg/mL (drugs), read-out: A. fumigatus IC50
[7] = Pseudomonas aeruginosa, test conc. 200-8 μg/mL (extracts), 100-4 or 10-0.4 μg/mL (drugs), read-out: P. aeruginosa IC50
[8] = test conc. 200-8 μg/mL (extracts), 100-4 or 10-0.4 μg/mL (drugs), read-out: VRE IC50
[9] = Escherichia coli, test conc. 200-8 μg/mL (extracts), 100-4 or 10-0.4 μg/mL (drugs), read-out: E. coli IC50
[10] = Table 12, highest test conc. fusaricidins 20, controls 100 μg/mL
[11] = Table 12, lowest concentration that allows no detectable growth
[12] = Table 13, Methicillin-resistant Staphylococcus aureus ATCC 1708
[13] = Table 13, Pseudomonas aeruginosa ATCC 2108
[14] = Table 13, Vancomycin-resistant Enterococcus faecium ATCC 700221
[15] = Table 13, Escherichia coli ATCC 2452

Structure (SMILES)	IC50 (Cryptococcus neoformans; [3]) [µg/mL]	C. neoformans IC50 (Cryptococcus neoformans) [µg/mL]	IC50 [1, 4] [µg/mL]	IC50 (Candida albicans; [5]) [µg/mL]	C. albicans IC50 (Candida albicans) [µg/mL]	IC50 (Klebsiella pneumoniae) [µg/mL]	IC50 (Aspergillus fumigatus; [6]) [µg/mL]	A. fumigatus IC50 (Aspergillus fumigatus) [µg/mL]	IC50 (Pseudomonas aeruginosa; [7]) [µg/mL]	VRE IC50 [2] [µg/mL]	IC50 [2, 8] [µg/mL]	IC50 (Escherichia coli; [9]) [µg/mL]	MRS IC50 [1] [µg/mL]	also measured
CO/N=C(\C(=O)N[C@@H]1C(=O)N2C(C(=O)O)=C(COC(C)=O)CS[C@H]12)c1csc(N)n1 [Cefotaxime]	> 100	>100	14.8 (≈ 32.5 µM)	> 100	>100	> 100	> 100	>100	11.8 (≈ 26 µM)	>100	> 100	80.2 (≈ 176 µM)	–	IC50 ([1]; ATCC 1708 / MRSA, Table 13, Methicillin-resistant Staphylococcus aureus ATCC 1708, read-out: MRSA IC50 (50% growth inhibitory concentration)): 15.6 µg/mL (≈ 34.3 µM); MIC ([1]; ATCC 1708 / MRSA, Table 13, Methicillin-resistant Staphylococcus aureus ATCC 1708, read-out: MRSA MIC (minimum inhibitory concentration)): 25 µg/mL (≈ 54.9 µM); IC50 (Pseudomonas aeruginosa; ATCC2108, Table 13, Pseudomonas aeruginosa ATCC 2108, read-out: P. aeruginosa IC50 (50% growth inhibitory concentration)): 5.3 µg/mL (≈ 11.6 µM); MIC (Pseudomonas aeruginosa; ATCC2108, Table 13, Pseudomonas aeruginosa ATCC 2108, read-out: P. aeruginosa MIC (minimum inhibitory concentration)): 25 µg/mL (≈ 54.9 µM); IC50 ([2]; ATCC 700221 / VRE, Table 13, Vancomycin-resistant Enterococcus faecium ATCC 700221, read-out: VRE IC50 (50% growth inhibitory concentration)): > 100 µg/mL; MIC ([2]; ATCC 700221 / VRE, Table 13, Vancomycin-resistant Enterococcus faecium ATCC 700221, read-out: VRE MIC (minimum inhibitory concentration)): > 100 µg/mL; IC50 (Escherichia coli; ATCC2452, Table 13, Escherichia coli ATCC 2452, read-out: E. coli IC50 (50% growth inhibitory concentration)): > 100 µg/mL; MIC (Escherichia coli; ATCC2452, Table 13, Escherichia coli ATCC 2452, read-out: E. coli MIC (minimum inhibitory concentration)): > 100 µg/mL
O=C(O)c1cn(C2CC2)c2cc(N3CCNCC3)c(F)cc2c1=O [Ciprofloxacin]	> 10	>10	> 10	–	–	> 10	–	–	0.81 (≈ 2.44 µM)	>10	> 10	< 0.01	>10	–
OC(Cn1cncn1)(Cn1cncn1)c1ccc(F)cc1F [Fluconazol]	–	–	–	–	–	–	–	–	–	–	–	–	–	IC50 (Cryptococcus neoformans; Cryptococcus neoformans, Table 12, highest test conc. fusaricidins 20, controls 100 μg/mL, read-out: C. neoformans IC50 (50% growth inhibitory concentration)): 2.5 µg/mL (≈ 8.16 µM); MIC (Cryptococcus neoformans; Cryptococcus neoformans, Table 12, lowest concentration that allows no detectable growth, read-out: C. neoformans MIC (minimum inhibitory concentration)): 6.3 µg/mL (≈ 20.6 µM); IC50 (Candida albicans; Table 12, highest test conc. fusaricidins 20, controls 100 μg/mL, read-out: C. albicans IC50 (50% growth inhibitory concentration)): 1 µg/mL (≈ 3.27 µM); IC50 (Aspergillus fumigatus; Aspergillus fumigatus, Table 12, highest test conc. fusaricidins 20, controls 100 μg/mL, read-out: A. fumigatus IC50 (50% growth inhibitory concentration)): > 100 µg/mL; MIC (Aspergillus fumigatus; Aspergillus fumigatus, Table 12, lowest concentration that allows no detectable growth, read-out: A. fumigatus MIC (minimum inhibitory concentration)): > 100 µg/mL
OC(Cn1cncn1)(Cn1cncn1)c1ccc(F)cc1F [Fluconazole]	2.2 (≈ 7.18 µM)	–	> 100	< 0.1	<0.1	> 100	> 100	>100	> 100	>100	> 100	> 100	>100	–
CC(C)[C@@H]1NC(=O)[C@@H](C(C)C)NC(=O)[C@@H](NC(=O)CC(O)CCCCCCCCCCCCN=C(N)N)[C@@H](C)OC(=O)[C@@H](C)NC(=O)[C@@H](CC(N)=O)NC(=O)[C@@H]([C@@H](C)O)NC1=O (stereo partly drawn) [Fusaricidin A (RRR-8-32Q)] ({Pentadecanoyl(3ξ-OH,15-Gua)}-T[dV]V[d(aThr)][dN][dA]; ester 1-C)	–	–	–	–	–	–	–	–	–	–	–	–	–	C. neoformans IC50 (50% growth inhibitory concentration) (Cryptococcus neoformans; [10]): 1.2 µg/mL; C. neoformans MIC (minimum inhibitory concentration) (Cryptococcus neoformans; [11]): 2.5 µg/mL; MRSA IC50 (50% growth inhibitory concentration) [1, 12]: 2.1 µg/mL; MRSA MIC (minimum inhibitory concentration) [1, 12]: 2.5 µg/mL; C. albicans IC50 (50% growth inhibitory concentration) (Candida albicans; [10]): 3.5 µg/mL; C. albicans MIC (minimum inhibitory concentration) (Candida albicans; [11]): 5.0 µg/mL; A. fumigatus IC50 (50% growth inhibitory concentration) (Aspergillus fumigatus; [10]): 18.5 µg/mL; A. fumigatus MIC (minimum inhibitory concentration) (Aspergillus fumigatus; [11]): > 20 µg/mL; P. aeruginosa IC50 (50% growth inhibitory concentration) (Pseudomonas aeruginosa; [13]): >20/>20 μg/mL; P. aeruginosa MIC (minimum inhibitory concentration) (Pseudomonas aeruginosa; [13]): >20/>20 μg/mL; VRE IC50 (50% growth inhibitory concentration) [2, 14]: 3.7 µg/mL; VRE MIC (minimum inhibitory concentration) [2, 14]: 5.0 µg/mL; E. coli IC50 (50% growth inhibitory concentration) (Escherichia coli; [15]): >20/>20 μg/mL; E. coli MIC (minimum inhibitory concentration) (Escherichia coli; [15]): >20/>20 μg/mL
